The values that follow come from patent US20170007663A1, “METHODS AND COMPOSITIONS FOR TREATING AND […] DYSFUNCTION” (CORNELL UNIVERSITY, priority 2013, published 2017).

Non-standard residues stand in square brackets, D forms with d. No end group written: not given here.

The test system of series [1] is cerebral metabolic rate of oxygen (CMRO). Description: Burst suppression model (Ching et al.) for cerebral metabolic rate of oxygen. The text has this: A burst suppression model, as described in Ching et al., PNAS, 109(8): 3095-3100, (2012), will be used to determine the effect of D-Arg-2′,6′-Dmt-Lys-Phe-NH2 on CMRO. A range of 10^−9 to 10^−6 molar concentration of D-Arg-2′,6′-Dmt-Lys-Phe-NH2 will be assayed and compared to untreated and control peptide assays.

Series [2] addresses mu-opioid receptor (Homo sapiens, UniProt P35372). The note with it: stated without a described test; cited from earlier work.
The subject of series [3] is several mammalian cell types. The settings on record: cited from earlier work.

Sequence of mu-opioid receptor (P35372 whole entry, species assumed): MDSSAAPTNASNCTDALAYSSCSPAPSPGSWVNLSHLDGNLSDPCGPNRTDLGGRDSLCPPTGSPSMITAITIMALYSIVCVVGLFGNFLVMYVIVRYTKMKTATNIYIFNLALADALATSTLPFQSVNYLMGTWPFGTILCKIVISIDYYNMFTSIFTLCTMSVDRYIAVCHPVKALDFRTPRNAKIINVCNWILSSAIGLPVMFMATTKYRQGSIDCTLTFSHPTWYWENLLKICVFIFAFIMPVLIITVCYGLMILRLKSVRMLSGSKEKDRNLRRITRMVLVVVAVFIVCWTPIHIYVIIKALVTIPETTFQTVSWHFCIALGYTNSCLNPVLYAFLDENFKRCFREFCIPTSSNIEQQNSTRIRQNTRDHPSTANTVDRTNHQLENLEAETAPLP

D-Arg-2′,6′-Dmt-Lys-Phe-NH2: the CMRO entry in series [1] (10^−9 to 10^−6 molar, compared to untreated and control peptide assays) is given as “increase in CMRO”. In addition, the “cerebral metabolism / neuronal cellular and network function” value in series [1] (burst suppression model, FIG. 1) was “increase in cerebral metabolism and/or a restoration of neuronal cellular and network function”. Besides, the “mu-opioid receptor agonist activity” value in series [2] is listed as “does not have mu-opioid receptor agonist activity”. As for F[dR]FK-NH2, the “mu-opioid receptor agonist activity” value in series [2] is reported as “does not have mu-opioid receptor agonist activity”.

For the substance Tyr-D-Arg-Phe-Lys-NH2, the “mu-opioid receptor agonist activity” value in series [2] was “has mu-opioid receptor agonist activity”. As for 2′,6′-Dmt-D-Arg-Phe-Lys-NH2, in series [3], the “penetration of the plasma membrane” value is recorded as “readily penetrates the plasma membrane of several mammalian cell types in an energy-independent manner”.
